Experimental data taken from patent US20220257725A1, “COMPOSITIONS AND METHODS FOR TREATING PEROXISOMAL BIOGENESIS DISORDERS” (University of Utah Research Foundation, priority 2019, published 2022).
Each block holds one molecule with its values, some of them ahead of it.

B3: yeast Pex13-V5 (expressed by its endogenous promotor) (other, yeast (S. cerevisiae), UniProt P80667 1-386, looked up)
chain: MSSTAVPRPKPWETSASLEEPQRNAQSLSAMMTSNQQDSRPTEESNNSNSASESAPEVLPRPAALNSSGTYGESNTIPGIYGNSNYGIPYDNNPYSMNSIYGNSIGRYGYGGSYYGNNYGSFYGGGYGAGAGYGMNNGSGLGESTKATFQLIESLIGAVTGFAQMLESTYMATHNSFFTMISVAEQFGNLKEMLGSFFGIFAIMKFLKKILYRATKGRLGIPPKNFAESEGSKNKLIEDFQKFNDSGTINSNEKATRRKISWKPLLFFLMAVFGFPYLLNKFITKLQTSGTIRASQGNGSEPIDPSKLEFARALYDFVPENPEMEVALKKGDLMAILSKKDPLGRDSDWWKVRTKNGNIGYIPYNYIEIIKRRKKIEHVDDETRTH
notes: not shown: V5 tag

How the values were obtained:
[1] = tested on: PEX3− patient fibroblasts; assay: Seahorse XF 96e Flux analyzer respiration (Mito-Stress-Test); type: cell-based, human
Experimental: (§1) Representative images of the most observed mitochondrial morphology are shown. […] OCR (pmol/min/norm.unit) for cWT (wild-type), cWT+ATAD1 (wild-type expressing ATAD1) PEX3− (patient), PEX3−+ATAD1 (PEX3− expressing ATAD1), cWT-ATAD1 (wildtype with ATAD1 deletion), PEX3−ATAD1 (patient with ATAD1 deletion) cells plotted against time (XF96e Extracellular Flux Analyzer, Mito-Stress-Test.) Oligomycin A (1 μM), 0.15 μM FCCP and 1 μM rotenone+1 μM antimycin A (final concentrations) were sequentially delivered to the XF96e assay medium through injection ports in the sensor cartridge. n=2 (4+4=8 technical replicates). […] Statistical significance (Welch's test), p values are indicated as: ns (not significant), * p≤0.05, ** p≤0.01, *** p≤0.001, **** p≤0.0001. […] Statistical significance (Welch's test), p values are indicated as: ns (not significant), * p≤0.05, ** p≤0.01, *** p≤0.001, **** p≤0.0001. FIG. 5E show a bar graph representation of calculated respiratory spare capacity (=uncoupled respiration minus basal respiration) of cWT (wild-type), cWT+ATAD1 (wild-type expressing ATAD1) PEX3− (patient), PEX3−+ATAD1 (PEX3− expressing ATAD1), cWT-ATAD1 (wildtype with ATAD1 deletion), PEX3−ATAD1 (patient with ATAD1 deletion). Statistical significance (Welch's test), p values are indicated as: ns (not significant), * p≤0.05, ** p≤0.01, *** p≤0.001, **** p≤0.0001.
Therefore, it was tested whether removal of the accumulated peroxins is able to restore mitochondrial respiration. To test the direct dependence of this phenotype with the expression levels of ATAD1, additional cell lines with genetic deletion of ATAD1 was generated. A Seahorse XF 96e Flux analyzer was used to measure respiration (FIG. 5B). A significant lower basal rate of respiration in the PEX3^− cell line was observed compared to the complemented wild-type cWT (FIGS. 5B, 5C). […] In the case that the expression level of ATAD1 is sufficient to cause the phenotype, it would be expected that a much more severe phenotype in the patient with an additional ATAD1 deletion. […]

[2] = tested on: PEX3 deficient (PEX3−) fibroblast cell line derived from a patient with Zellweger Syndrome; assay: Live cell fluorescent imaging of peroxin-GFP localization with ATAD1 overexpression; type: cell-based, human
[3] = tested on: PEX3− patient fibroblasts; assay: Unbiased whole cell lipidomics; type: cell-based, human; settings: patient cell line with overexpression of ATAD1
Experimental: as §1
To complement the characterization with other readouts relevant to reflect important mitochondrial function, unbiased whole cell lipidomics was performed. […] Another readout of flourishing mitochondrial metabolism is the capacity of mitochondria to import […] phosphatidylserines (PSs) into phosphatidylethanolamines (PEs). […] The class of phospho-ether lipids (plasmalogens), precursors to myelin, seems to be unaffected (FIG. 5H).

[4] = tested on: PEX3− patient fibroblasts; assay: Electron microscopy of mitochondrial morphology; type: cell-based, human
Experimental: Representative images of the most observed mitochondrial morphology are shown. […] OCR (pmol/min/norm.unit) for cWT (wild-type), cWT+ATAD1 (wild-type expressing ATAD1) PEX3− (patient), PEX3−+ATAD1 (PEX3− expressing ATAD1), cWT-ATAD1 (wildtype with ATAD1 deletion), PEX3−ATAD1 (patient with ATAD1 deletion) cells plotted against time (XF96e Extracellular Flux Analyzer, Mito-Stress-Test.) Oligomycin A (1 μM), 0.15 μM FCCP and 1 μM rotenone+1 μM antimycin A (final concentrations) were sequentially delivered to the XF96e assay medium through injection ports in the sensor cartridge. n=2 (4+4=8 technical replicates). […] Statistical significance (Welch's test), p values are indicated as: ns (not significant), * p≤0.05, ** p≤0.01, *** p≤0.001, **** p≤0.0001. […] Statistical significance (Welch's test), p values are indicated as: ns (not significant), * p≤0.05, ** p≤0.01, *** p≤0.001, **** p≤0.0001. FIG. 5E show a bar graph representation of calculated respiratory spare capacity (=uncoupled respiration minus basal respiration) of cWT (wild-type), cWT+ATAD1 (wild-type expressing ATAD1) PEX3− (patient), PEX3−+ATAD1 (PEX3− expressing ATAD1), cWT-ATAD1 (wildtype with ATAD1 deletion), PEX3−ATAD1 (patient with ATAD1 deletion). Statistical significance (Welch's test), p values are indicated as: ns (not significant), * p≤0.05, ** p≤0.01, *** p≤0.001, **** p≤0.0001. […]

[5] = target: B3; assay: BN-PAGE of digitonin-solubilised yeast mitochondrial membranes with complexome profiling (co-migration)
Experimental: Gel was transferred to PVDF membrane and immunoblotted for PEX13^V5 (V5). […] Left panel represents the protein abundance in the wild-type, middle panel in pex19Δ and the right panel in pex19Δmsp1Δ.
Some peroxisomal matrix proteins were detected that have never been reported to be localized to the mitochondria before (FIG. 2 and FIG. 3A (summary cartoon)). Therefore, it was tested whether the enrichment of peroxins on mitochondria is a random accumulation or a structured event.

[6] = target: B3; assay: BN-PAGE of digitonin-solubilised yeast mitochondrial membranes with complexome profiling (co-migration in a 150-180 kDa subcomplex)
[7] = target: T1, yeast Pex25 (yeast (S. cerevisiae), UniProt Q02969 1-394); assay: as above
T1 sequence (looked up): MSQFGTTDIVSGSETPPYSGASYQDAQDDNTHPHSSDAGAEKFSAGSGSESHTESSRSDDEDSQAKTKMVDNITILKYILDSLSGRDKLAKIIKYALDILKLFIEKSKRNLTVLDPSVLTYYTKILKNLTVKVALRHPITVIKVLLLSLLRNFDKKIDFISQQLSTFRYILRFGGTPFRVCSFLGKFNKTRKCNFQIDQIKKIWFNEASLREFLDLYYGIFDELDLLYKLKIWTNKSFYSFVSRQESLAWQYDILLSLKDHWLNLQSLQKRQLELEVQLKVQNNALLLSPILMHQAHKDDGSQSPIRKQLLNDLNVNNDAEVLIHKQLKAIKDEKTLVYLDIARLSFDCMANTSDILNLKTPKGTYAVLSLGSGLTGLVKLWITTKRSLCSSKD

Molecule: ATAD1: human AAA-ATPase acting in mitochondrial protein quality control; overexpressed in patient fibroblasts
Mitochondrial spare capacity (uncoupled minus basal respiration) ([1]; PEX3−ATAD+): recovered the mitochondrial spare capacity | Uncoupled respiration ([1]; PEX3−ATAD+ versus cWT, FCCP 0.15 μM): normalized to wild-type respiration | Basal mitochondrial respiration ([1]; PEX3−ATAD+ versus cWT, OCR): restored back to wild-type level | PEX13-GFP localization ([2]; PEX3−ATAD+ cells (ATAD1 overexpressed), Mitotracker far red counterstain): not stabilized in the mitochondrial outer membrane | PEX12-GFP distribution ([2]; PEX12-GFP transiently expressed, ATAD1 overexpressing patient cell line, compared with PEX13-GFP result): very similar distribution with a slightly milder effect | Cardiolipin levels [3]: normalizes to wild-type levels | Phosphatidylethanolamine (PE) levels [3]: slightly higher values than in wild-type | Phospho-ether lipids (plasmalogens) [3]: unaffected | Share accounted as type 3 (mitochondria with fewer cristae) ([4]; PEX3−ATAD+ cells, patient >80% type 2, wild-type about 80% types 1 and 3): about 70% | Mitochondrial morphology (electron density, cristae) ([4]; patient cell line overexpressing ATAD1, electron microscopy): electron density recovers and cristae formation is partially detected

Molecule: B3
binding result [7]: binds

The next lines start with the values.

binding result [5]: binds
B1: yeast Pex14 (other, yeast (S. cerevisiae), UniProt P53112 2-341, looked up)
chain: SDVVSKDRKALFDSAVSFLKDESIKDAPLLKKIEFLKSKGLTEKEIEIAMKEPKKDGIVGDEVSKKIGSTENRASQDMYLYEAMPPTLPHRDWKDYFVMATATAGLLYGAYEVTRRYVIPNILPEAKSKLEGDKKEIDDQFSKIDTVLNAIEAEQAEFRKKESETLKELSDTIAELKQALVQTTRSREKIEDEFRIVKLEVVNMQNTIDKFVSDNDGMQELNNIQKEMESLKSLMNNRMESGNAQDNRLFSISPNGIPGIDTIPSASEILAKMGMQEESDKEKENGSDANKDDNAVPAWKKAREQTIDSNASIPEWQKNTAANEISVPDWQNGQVEDSIP

binding result [6]: binds
B2: yeast Pex11 (other, yeast (S. cerevisiae), UniProt Q12462 2-236, looked up)
chain: VCDTLVYHPSVTRFVKFLDGSAGREKVLRLLQYLARFLAVQNSSLLARQLQAQFTTVRKFLRFLKPLNHLQAAAKFYDNKLASDNVVRVCNVLKNIFFAAYLSLDQVNLLRILKVIPVTVLTGKKIPRWSNWCWLFGLLSGLAMDLRKIQTSHAQIAAFVKAKSQSQGDEHEDHKKVLGKAYQDRYTALRRLFWDAADSFIVLNNLGYLSSNEEYVALSGVVTSILGMQDMWKAT
